This note sets out measurements from patent US20240246941A1, “SUBSTITUTED 4-(3-AMINOPROP-1-YL)AMINOQUINOLINE ANALOGS AS MODULATORS OF MELANOMA-ASSOCIATED ANTIGEN 11 UBIQUITIN LIGASE” (ST. JUDE CHILDREN'S RESEARCH HOSPITAL, INC., priority 2020, published 2024).

This experiment concerns the target MAGE-A11:PCF11 (Homo sapiens (Human), UniProt P43364). The experiment in a line: TR-FRET single point screening at 15 μM. Type of experiment: binding. Further details: unit not given here. In short, it runs like this:
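Single-point screen at 15 μM (0.25% DMSO) measuring disruption of GST-MAGEA11 (5 nM) binding to FAM-PCF11_4 peptide (200 nM) detected by Tb-anti-GST (5 nM). Buffer 50 mM Tris pH 7.5, 20 mM MgCl2, 0.1 mg/ml BSA, 1 mM DTT; 90 min at ~25 °C; 520/490 nm ratio converted to % inhibition versus controls.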
(Time-resolved FRET reads energy transfer from a long-lived donor to a nearby acceptor.)

[1] abbreviates: single point TR-FRET screening of quinoline compounds against MAGE-A11:PCF11, 15 μM.
The mark [2] stands for this setting: single point TR-FRET screening at 15 μM against MAGE-A11:PCF11.

MAGE-A11:PCF11, sequence (P43364 218-429): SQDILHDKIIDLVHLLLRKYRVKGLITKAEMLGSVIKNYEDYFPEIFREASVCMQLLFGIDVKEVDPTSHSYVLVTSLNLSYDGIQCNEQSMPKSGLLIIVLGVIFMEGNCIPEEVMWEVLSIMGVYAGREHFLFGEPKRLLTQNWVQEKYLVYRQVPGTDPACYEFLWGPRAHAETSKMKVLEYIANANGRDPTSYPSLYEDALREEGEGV

Regarding `CCCN(CCCNc1ccnc2cc(Cl)ccc12)Cc1cccc2c1OCO2` [SJ000357594], under setting [1], the TR-FRET signal is 18.14.

Consider `CCCN(CCCNc1ccnc2cc(Cl)ccc12)Cc1ccccc1OC(F)(F)F` [SJ000357595], for which the TR-FRET signal under setting [1] was −21.87.

`CCCN(CCCNc1ccnc2cc(Cl)ccc12)Cc1cc(F)cc(F)c1O` [SJ000357597]: under setting [1], the TR-FRET signal amounted to 15.96.

On to `Clc1ccc2c(NCCCN(Cc3ccccc3)Cc3cccc4c3OCO4)ccnc2c1` [SJ000357598], for which, under setting [1], the TR-FRET signal was 3.49.

Under setting [1], `FC(F)(F)Oc1ccccc1CN(CCCNc1ccnc2cc(Cl)ccc12)Cc1ccccc1` [SJ000357599] displayed a TR-FRET signal of 19.76.

For `COc1ccc2nc3cc(Cl)ccc3c(NCCCNCc3ccc[nH]3)c2c1` [SJ000361084], the TR-FRET signal under setting [1] worked out at 0.9854.

Take `COc1ccc2nc3cc(Cl)ccc3c(NCCCNCc3ccc4c(c3)OCO4)c2c1` [SJ000361085]: the TR-FRET signal under setting [2] is −363.3.

With `COc1ccc2nc3cc(Cl)ccc3c(NCCCNCc3ccccc3)c2c1` [SJ000361086], the TR-FRET signal under setting [2] was −432.4.

As for `COc1ccc2nc3cc(Cl)ccc3c(NCCCNCC3CC3)c2c1` [SJ000361087], the TR-FRET signal under setting [2] is −502.4.

With `COc1ccc2nc3cc(Cl)ccc3c(NCCCNCc3cccs3)c2c1` [SJ000361088], the TR-FRET signal under setting [2] is −453.5.

With `COc1ccc2nc3cc(Cl)ccc3c(NCCCNCc3ccc(C)o3)c2c1` [SJ000361089], the TR-FRET signal under setting [2] was −229.

`COc1ccc2nc3cc(Cl)ccc3c(NCCCNCC3CCCCC3)c2c1` [SJ000361090] registered a TR-FRET signal under setting [2] of −411.2.

For the compound `COc1ccc2nc3cc(Cl)ccc3c(NCCCNCc3cc(F)ccc3F)c2c1` [SJ000361091], the TR-FRET signal under setting [2] is reported as −327.2.

Under setting [2], `CCC(CC)CNCCCNc1c2ccc(Cl)cc2nc2ccc(OC)cc12` [SJ000361092] showed a TR-FRET signal of −427.4.

`CCC(C)CNCCCNc1c2ccc(Cl)cc2nc2ccc(OC)cc12` (centres unmarked) [SJ000361093] returned a TR-FRET signal under setting [2] of −451.5.

`COc1ccc2nc3cc(Cl)ccc3c(NCCCNCc3sccc3C)c2c1` [SJ000361094] had a TR-FRET signal under setting [2] of −321.3.

In the case of `COc1ccc2nc3cc(Cl)ccc3c(NCCCNCc3ccccc3C(F)(F)F)c2c1` [SJ000361095], the TR-FRET signal under setting [2] is −169.5.

Take `CCCNCCCNc1c2ccc(Cl)cc2nc2ccc(OC)cc12` [SJ000361096]: the TR-FRET signal under setting [2] is on record as −498.5.

`CCCCCCNCCCNc1c2ccc(Cl)cc2nc2ccc(OC)cc12` [SJ000361097] gave a TR-FRET signal under setting [2] of −281.7.

Take `COc1ccc2nc3cc(Cl)ccc3c(NCCCNCCC(C)SC)c2c1` (centres unmarked) [SJ000361098]: the TR-FRET signal under setting [2] is on record as −514.5.

Regarding `COc1ccc2nc3cc(Cl)ccc3c(NCCCNCc3c4ccccc4cc4ccccc34)c2c1` [SJ000361099], under setting [1], the TR-FRET signal is listed as −3.728.

In the case of `Clc1ccc2c(NCCCNCC3CC3)ccnc2c1` [SJ000361101], the TR-FRET signal under setting [1] amounted to 11.47.

Under setting [1], `Clc1ccc2c(NCCCNCC3CCCCC3)ccnc2c1` [SJ000361102] returned a TR-FRET signal of 15.63.

`CCC(CC)CNCCCNc1ccnc2cc(Cl)ccc12` [SJ000361103] registered a TR-FRET signal under setting [1] of 16.55.

Under setting [1], `CCC(C)CNCCCNc1ccnc2cc(Cl)ccc12` (centres unmarked) [SJ000361104] registered a TR-FRET signal of 9.822.

On to `FC(F)(F)c1ccc2c(NCCCNCc3ccc[nH]3)ccnc2c1` [SJ000361105], for which the TR-FRET signal under setting [1] was found to be 41.69.

For `FC(F)(F)c1ccc2c(NCCCNCC3CC3)ccnc2c1` [SJ000361108], the TR-FRET signal under setting [1] was 22.81.

In turn, `Cc1ccc(CNCCCNc2ccnc3cc(C(F)(F)F)ccc23)o1` [SJ000361109] came in with a TR-FRET signal under setting [1] of 14.45.

Turning to `FC(F)(F)c1ccc2c(NCCCNCC3CCCCC3)ccnc2c1` [SJ000361110], the TR-FRET signal under setting [1] came out at 27.12.

Under setting [1], `CCC(CC)CNCCCNc1ccnc2cc(C(F)(F)F)ccc12` [SJ000361111] showed a TR-FRET signal of 24.33.

Regarding `CCC(C)CNCCCNc1ccnc2cc(C(F)(F)F)ccc12` (centres unmarked) [SJ000361112], the TR-FRET signal under setting [1] worked out at 18.47.

`FC(F)(F)c1ccc2c(NCCCNCc3ccco3)ccnc2c1` [SJ000361113] returned a TR-FRET signal under setting [1] of 18.05.

In turn, `CCCNCCCNc1ccnc2cc(Cl)ccc12` [SJ000361119] came in with a TR-FRET signal under setting [1] of 9.785.

Under setting [1], `CCCCCCNCCCNc1ccnc2cc(Cl)ccc12` [SJ000361120] yielded a TR-FRET signal of 22.25.

Under setting [1], `CSC(C)CCNCCCNc1ccnc2cc(Cl)ccc12` (centres unmarked) [SJ000361121] displayed a TR-FRET signal of 13.5.

On to `CCCNCCCNc1ccnc2cc(C(F)(F)F)ccc12` [SJ000361123], for which, under setting [1], the TR-FRET signal is recorded as 12.82.

Turning to `CCCCCCNCCCNc1ccnc2cc(C(F)(F)F)ccc12` [SJ000361124], under setting [1], the TR-FRET signal worked out at 31.61.

Under setting [1], `CSC(C)CCNCCCNc1ccnc2cc(C(F)(F)F)ccc12` (centres unmarked) [SJ000361125] gave a TR-FRET signal of 24.46.

For `Clc1ccc2c(NCCCN(Cc3ccccc3)Cc3ccccc3)ccnc2c1` [SJ000361166], the TR-FRET signal under setting [1] came out at 14.76.

`Oc1ccccc1CN(CCCNc1ccnc2cc(Cl)ccc12)Cc1ccccc1` [SJ000361167] showed a TR-FRET signal under setting [1] of 19.27.

Take `FC(F)(F)c1ccccc1CN(CCCNc1ccnc2cc(Cl)ccc12)Cc1ccccc1` [SJ000361168]: the TR-FRET signal under setting [1] came to 2.509.

Compound `Cc1cc(C)c(CN(CCCNc2ccnc3cc(Cl)ccc23)Cc2ccccc2)c(C)c1` [SJ000361169] returned a TR-FRET signal under setting [1] of 31.19.

`Clc1ccc2c(NCCCN(Cc3ccccc3)Cc3ccoc3)ccnc2c1` [SJ000361170] returned a TR-FRET signal under setting [1] of 12.84.

`Clc1ccc2c(NCCCN(Cc3ccccc3)CC3CCCCC3)ccnc2c1` [SJ000361171] came in with a TR-FRET signal under setting [1] of 28.21.

`CCC(CC)CN(CCCNc1ccnc2cc(Cl)ccc12)Cc1ccccc1` [SJ000361172] yielded a TR-FRET signal under setting [1] of 22.91.

As to `CCCCCN(CCCNc1ccnc2cc(Cl)ccc12)Cc1ccccc1` [SJ000361173], the TR-FRET signal under setting [1] is 26.56.

As for `Fc1ccc(CN(CCCNc2ccnc3cc(Cl)ccc23)Cc2ccccc2)cc1F` [SJ000361174], the TR-FRET signal under setting [1] amounted to 27.55.

With `Fc1ccccc1CN(CCCNc1ccnc2cc(Cl)ccc12)Cc1ccccc1` [SJ000361175], the TR-FRET signal under setting [1] is on record as 0.9627.

Consider `Fc1cccc(CN(CCCNc2ccnc3cc(Cl)ccc23)Cc2ccccc2)c1` [SJ000361176], for which the TR-FRET signal under setting [1] is given as 20.36.

As for `O=[N+]([O-])c1ccccc1CN(CCCNc1ccnc2cc(Cl)ccc12)Cc1ccccc1` [SJ000361177], the TR-FRET signal under setting [1] was found to be 16.42.

`O=[N+]([O-])c1cccc(CN(CCCNc2ccnc3cc(Cl)ccc23)Cc2ccccc2)c1` [SJ000361178] returned a TR-FRET signal under setting [1] of 17.02.

Under setting [1], `O=[N+]([O-])c1ccc(CN(CCCNc2ccnc3cc(Cl)ccc23)Cc2ccccc2)cc1` [SJ000361179] showed a TR-FRET signal of 20.2.

In turn, `O=C(O)c1ccccc1CN(CCCNc1ccnc2cc(Cl)ccc12)Cc1ccccc1` [SJ000361180] had a TR-FRET signal under setting [1] of 9.598.

On to `Clc1ccc2c(NCCCN(Cc3ccccc3)Cc3cccc4ccccc34)ccnc2c1` [SJ000361181], for which the TR-FRET signal under setting [1] was determined as 26.23.

On to `Clc1ccc2c(NCCCN(Cc3ccccc3)Cc3ccc4ccccc4c3)ccnc2c1` [SJ000361182], for which the TR-FRET signal under setting [1] is reported as 22.05.

In turn, `Cc1cccc(CN(CCCNc2ccnc3cc(Cl)ccc23)Cc2ccccc2)c1` [SJ000361183] came in with a TR-FRET signal under setting [1] of 6.02.

As for `Clc1ccc(CN(CCCNc2ccnc3cc(Cl)ccc23)Cc2ccccc2)c(Cl)c1` [SJ000361184], the TR-FRET signal under setting [1] is reported as 25.5.

`Clc1ccc2c(NCCCN(CCCc3ccccc3)Cc3ccccc3)ccnc2c1` [SJ000361185] registered a TR-FRET signal under setting [1] of 6.074.

Consider `CCC(C)CN(CCCNc1ccnc2cc(Cl)ccc12)Cc1ccccc1` (centres unmarked) [SJ000361186], for which the TR-FRET signal under setting [1] is recorded as 29.6.

Turning to `Cc1ccc(C)c(CN(CCCNc2ccnc3cc(Cl)ccc23)Cc2ccccc2)c1` [SJ000361187], the TR-FRET signal under setting [1] was found to be 20.22.

Under setting [1], `COc1cccc(CN(CCCNc2ccnc3cc(Cl)ccc23)Cc2ccccc2)c1` [SJ000361188] gave a TR-FRET signal of −9.05.

Take `CCCCCCN(CCCNc1ccnc2cc(Cl)ccc12)Cc1ccccc1` [SJ000361189]: the TR-FRET signal under setting [1] is recorded as −40.75.

Turning to `Clc1ccc2c(NCCCCN(Cc3ccccc3)Cc3ccncc3)ccnc2c1` [SJ000361190], the TR-FRET signal under setting [2] is listed as −9.945.

Take `Cc1ccsc1CN(CCCCNc1ccnc2cc(Cl)ccc12)Cc1ccccc1` [SJ000361191]: the TR-FRET signal under setting [2] turned out to be 23.44.

Compound `FC(F)(F)c1ccccc1CN(CCCCNc1ccnc2cc(Cl)ccc12)Cc1ccccc1` [SJ000361192] showed a TR-FRET signal under setting [2] of 27.82.

Turning to `Cc1cc(C)c(CN(CCCCNc2ccnc3cc(Cl)ccc23)Cc2ccccc2)c(C)c1` [SJ000361193], the TR-FRET signal under setting [2] turned out to be 26.03.

Turning to `Clc1ccc2c(NCCCCN(Cc3ccccc3)CC3CCCCC3)ccnc2c1` [SJ000361194], the TR-FRET signal under setting [2] turned out to be 41.93.

On to `CCC(CC)CN(CCCCNc1ccnc2cc(Cl)ccc12)Cc1ccccc1` [SJ000361195], for which the TR-FRET signal under setting [2] was found to be 25.54.

As for `CCCCCN(CCCCNc1ccnc2cc(Cl)ccc12)Cc1ccccc1` [SJ000361196], the TR-FRET signal under setting [2] is 19.1.

Under setting [2], `Fc1ccc(CN(CCCCNc2ccnc3cc(Cl)ccc23)Cc2ccccc2)cc1F` [SJ000361197] came in with a TR-FRET signal of 26.09.

For the compound `Fc1ccccc1CN(CCCCNc1ccnc2cc(Cl)ccc12)Cc1ccccc1` [SJ000361198], the TR-FRET signal under setting [2] is 20.78.

On to `Fc1cccc(CN(CCCCNc2ccnc3cc(Cl)ccc23)Cc2ccccc2)c1` [SJ000361199], for which the TR-FRET signal under setting [2] is recorded as 28.34.

In turn, `O=[N+]([O-])c1ccccc1CN(CCCCNc1ccnc2cc(Cl)ccc12)Cc1ccccc1` [SJ000361200] came in with a TR-FRET signal under setting [2] of 17.21.

`O=[N+]([O-])c1cccc(CN(CCCCNc2ccnc3cc(Cl)ccc23)Cc2ccccc2)c1` [SJ000361201] gave a TR-FRET signal under setting [2] of 24.37.
